Paper PMC3627370 (Journal of the American Chemical Society, 2013)

What was measured:
[1] = biological target: T1, nicotinamide phosphoribosyltransferase (NAMPT) (Homo sapiens, UniProt P43490); assay type: biochemical
[2] = biological target: T1, nicotinamide phosphoribosyltransferase (NAMPT); assay: dissociation constant determination at […] °C, pH […]; assay type: binding

T1 sequence (P43490 whole entry): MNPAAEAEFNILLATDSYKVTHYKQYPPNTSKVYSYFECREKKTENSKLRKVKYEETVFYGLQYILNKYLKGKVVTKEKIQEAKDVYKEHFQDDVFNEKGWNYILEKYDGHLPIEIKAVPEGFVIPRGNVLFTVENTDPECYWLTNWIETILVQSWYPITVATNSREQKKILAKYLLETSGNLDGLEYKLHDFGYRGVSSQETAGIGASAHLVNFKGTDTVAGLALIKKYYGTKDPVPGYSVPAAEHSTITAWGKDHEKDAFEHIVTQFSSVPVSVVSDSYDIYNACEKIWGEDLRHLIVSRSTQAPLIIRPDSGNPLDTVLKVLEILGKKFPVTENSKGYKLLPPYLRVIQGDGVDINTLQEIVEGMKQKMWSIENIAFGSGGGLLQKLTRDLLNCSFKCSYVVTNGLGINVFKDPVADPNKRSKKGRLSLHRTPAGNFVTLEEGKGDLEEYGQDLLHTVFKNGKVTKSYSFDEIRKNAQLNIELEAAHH

SMILES	Ki [1] [nM]	Kd [2] [µM]
O=[N+]([O-])c1ccc(O[C@@H]2O[C@H](COP(=O)(O)O)[C@@H](O)[C@H]2O)cc1 [5P-pNR, 5-phospho-p-nitrophenyl β-D-ribofuranoside]	2500	–
NC(=O)c1ccc[n+]([C@@H]2O[C@H](COP(=O)([O-])O)[C@@H](O)[C@H]2O)c1 [NMN, nicotinamide mononucleotide]	–	34 ± 2
